The results in this text go back to patent publication US20260109721A1, “IONIZABLE CATIONIC LIPIDS INCORPORATING SILICON: SYNTHESIS AND LNP FORMULATION” (priority 2023, published 2026).

Where two headings read alike, the source gives them in different places.

In one series the test system is HeLa cells. Kind of series: Cell viability assessment with resazurin assay (Method A). The class given is cell-based. To be noted: human. A digest of the protocol: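 HeLa cells after Luc mRNA LNP transfection were incubated 50 min at 37 °C with 0.025 mg/ml resazurin in DMEM/F12 with 10% FCS. Resorufin fluorescence was read at ex 540/em 610 nm, background-subtracted, and expressed as percent of OptiMEM-only controls.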

Another series relates to HepG2 cell line. In words: In vitro toxicity study on HepG2 cell line (resazurin, viability and IC50). The class given is cell-based, human. To be noted: for Viability (%) at different lipid concentrations, mean: HepG2 cells, 48 h post-treatment, relative to ethanol vehicle controls; for IC50: Homo sapiens, read-out: IC50 value, μM (on HepG2 cell). The gist of the method: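 HepG2 cells (1000/well) were treated after overnight incubation with lipids at 6.25–800 μM for 48 h. Viability was read by resazurin fluorescence (530/580 nm) after 5 h at 37 °C, relative to ethanol vehicle controls. IC50 values came from concentration-response curves.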

Where [1] appears, read: lipid toxicity, HepG2, 48 h post-treatment, resazurin, 6.25-800 μM.

As for `CCCCCCCC/C=C\CCCCCCCCOC(CCCCCCC/C=C\CCCCCCCC)O[Si](C)(C)OCCCCCCN(C)[C@H](CO)Cc1ccccc1` (stereo partly drawn) [Example 78, (2S,Z)-2-benzyl-13-((Z)-heptadec-8-en-1-yl)-3,11,11-trimethyl-10,12,14-trioxa-3-aza-11-siladotriacont-23-en-1-ol], the “Cell Viability % (Average metabolic rate over all doses, Resazurin)” value (from here on “Cell Viability %”) in the series with HeLa cells stood at 121%. Besides, the “Viability (%) at different lipid concentrations, mean” value in the series with HepG2 cell line (6.25 μM lipid, resazurin) is recorded as 92.0%; with HepG2 cell line (12.5 μM lipid, resazurin), 101.6%; in the series with HepG2 cell line (25 μM lipid, resazurin), 101.5%; in the series with HepG2 cell line (50 μM lipid, resazurin) it was 102.9%; in the series on HepG2 cell line (100 μM lipid, resazurin) it was 101.9%; in the series on HepG2 cell line (200 μM lipid, resazurin), 100.8%. For the same compound, the “Viability (%) at different lipid concentrations, mean” value in the series on HepG2 cell line (400 μM lipid, resazurin) is on record as 56.4%; in the series on HepG2 cell line (800 μM lipid, resazurin), 1.6%. The IC50 in the series on HepG2 cell line (setting [1]) is 414 µM.
For the compound `CCCCC/C=C\C/C=C\CCCCCCCCOC(CCCCCCC/C=C\C/C=C\CCCCC)O[Si](C)(C)OCCCCCCN(C)C` (stereo not drawn) [Example 79, (20Z,23Z)-10-((8Z,11Z)-heptadeca-8,11-dien-1-yl)-N,N,8,8-tetramethyl-7,9,11-trioxa-8-silanonacosa-20,23-dien-1-amine], the “Cell Viability %” value in the series with HeLa cells was 91%. Moreover, the “Viability (%) at different lipid concentrations, mean” value with HepG2 cell line (6.25 μM lipid, resazurin) turned out to be 100.82%; with HepG2 cell line (12.5 μM lipid, resazurin), 98.88%; in the series with HepG2 cell line (25 μM lipid, resazurin) it was 99.57%; with HepG2 cell line (50 μM lipid, resazurin), 101.89%; in the series on HepG2 cell line (100 μM lipid, resazurin), 99.49%; in the series on HepG2 cell line (200 μM lipid, resazurin) it was 76.57%. Moreover, the “Viability (%) at different lipid concentrations, mean” value is 52.32% in the series on HepG2 cell line (400 μM lipid, resazurin) and 34.54% in the series on HepG2 cell line (800 μM lipid, resazurin). In the series on HepG2 cell line (HepG2, 48 h), the IC50 was 473 µM.
Consider `CCCCC/C=C\C/C=C\CCCCCCCCO[Si](C)(C)OC(CCCCCCC/C=C\C/C=C\CCCCC)OCCCN(C)C` (stereo not drawn) [Example 80, (17Z,20Z)-5-((8Z,11Z)-heptadeca-8,11-dien-1-yl)-N,N,7,7-tetramethyl-4,6,8-trioxa-7-silahexacosa-17,20-dien-1-amine], for which the “Cell Viability %” value with HeLa cells came out at 99%. Further, the “Viability (%) at different lipid concentrations, mean” value worked out at 98.8% in the series on HepG2 cell line (6.25 μM lipid, resazurin); 98.68% with HepG2 cell line (12.5 μM lipid, resazurin); 98.64% in the series on HepG2 cell line (25 μM lipid, resazurin); 99.05% in the series on HepG2 cell line (50 μM lipid, resazurin); 96.68% with HepG2 cell line (100 μM lipid, resazurin); 69.13% with HepG2 cell line (200 μM lipid, resazurin). In addition, the “Viability (%) at different lipid concentrations, mean” value in the series on HepG2 cell line (400 μM lipid, resazurin) came out at 0.79%; in the series with HepG2 cell line (800 μM lipid, resazurin), 0.71%. Besides, the IC50 in the series with HepG2 cell line (HepG2, 48 h) worked out at 223 µM.
Regarding `CCCCCCCC/C=C\CCCCCCCCOC(=O)C(C)(C)CC(OCCCCCCCC/C=C\CCCCCCCC)O[Si](C)(C)OCCCCCCN(CCO)CCO` (stereo not drawn) [Example 84, (Z)-octadec-9-en-1-yl 1-hydroxy-3-(2-hydroxyethyl)-11,11,15,15-tetramethyl-13-(((Z)-octadec-9-en-1-yl)oxy)-10,12-dioxa-3-aza-11-silahexadecan-16-oate], the “Cell Viability %” value in the series on HeLa cells worked out at 114%. Besides, the “Viability (%) at different lipid concentrations, mean” value in the series with HepG2 cell line (6.25 μM lipid, resazurin) was 87.8%; in the series on HepG2 cell line (12.5 μM lipid, resazurin), 99.3%; in the series with HepG2 cell line (25 μM lipid, resazurin), 101.8%; in the series on HepG2 cell line (50 μM lipid, resazurin), 104.5%; with HepG2 cell line (100 μM lipid, resazurin), 103.5%; in the series with HepG2 cell line (200 μM lipid, resazurin), 90.4%. Further, the “Viability (%) at different lipid concentrations, mean” value worked out at 82.2% in the series with HepG2 cell line (400 μM lipid, resazurin) and 88.5% in the series on HepG2 cell line (800 μM lipid, resazurin). Moreover, the IC50 with HepG2 cell line (setting [1]) was over 800 µM.
On to `CCCCCCCC/C=C\CCCCCCCCOC(=O)C(C)(C)CC(OCCCCCCCC/C=C\CCCCCCCC)O[Si](C)(C)OCCCCCCN1CCOCC1` (stereo not drawn) [Example 85, (Z)-octadec-9-en-1-yl 4-((dimethyl((6-morpholinohexyl)oxy)silyl)oxy)-2,2-dimethyl-4-(((Z)-octadec-9-en-1-yl)oxy)butanoate], for which the “Cell Viability %” value in the series with HeLa cells was determined as 110%. The “Viability (%) at different lipid concentrations, mean” value turned out to be 97.0% with HepG2 cell line (6.25 μM lipid, resazurin); 101.0% in the series on HepG2 cell line (12.5 μM lipid, resazurin); 101.4% in the series with HepG2 cell line (25 μM lipid, resazurin); 102.1% in the series on HepG2 cell line (50 μM lipid, resazurin); 101.5% in the series with HepG2 cell line (100 μM lipid, resazurin); 101.9% with HepG2 cell line (200 μM lipid, resazurin). Besides, the “Viability (%) at different lipid concentrations, mean” value was found to be 103.2% in the series on HepG2 cell line (400 μM lipid, resazurin) and 80.1% in the series with HepG2 cell line (800 μM lipid, resazurin). The IC50 in the series with HepG2 cell line (setting [1]) was over 800 µM.
Turning to `CCCCCCCC/C=C\CCCCCCCCOC(=O)C(C)(C)CC(OCCCCCCCC/C=C\CCCCCCCC)O[Si](C)(C)OCCCCCCN(CCCCO)CCCCO` (stereo not drawn) [Example 86, (Z)-octadec-9-en-1-yl 18-hydroxy-14-(4-hydroxybutyl)-2,2,6,6-tetramethyl-4-(((Z)-octadec-9-en-1-yl)oxy)-5,7-dioxa-14-aza-6-silaoctadecanoate], the “Cell Viability %” value in the series on HeLa cells was determined as 96%. In addition, the “Viability (%) at different lipid concentrations, mean” value in the series with HepG2 cell line (6.25 μM lipid, resazurin) was determined as 95.4%; in the series with HepG2 cell line (12.5 μM lipid, resazurin) it was 107.0%; in the series with HepG2 cell line (25 μM lipid, resazurin) it was 108.7%; in the series with HepG2 cell line (50 μM lipid, resazurin) it was 105.4%; in the series with HepG2 cell line (100 μM lipid, resazurin), 95.4%; with HepG2 cell line (200 μM lipid, resazurin), 77.2%. The “Viability (%) at different lipid concentrations, mean” value in the series on HepG2 cell line (400 μM lipid, resazurin) came to 57.1%; in the series with HepG2 cell line (800 μM lipid, resazurin), 42.8%. For the same compound, in the series on HepG2 cell line (setting [1]), the IC50 was 564 µM.
Consider `CCCCCCCC/C=C\CCCCCCCCOC(=O)C(C)(C)CC(OCCCCCCCC/C=C\CCCCCCCC)O[Si](C)(C)OCCCCCCN1CCCCC1` (stereo not drawn) [Example 87, (Z)-octadec-9-en-1-yl 4-((dimethyl((6-(piperidin-1-yl)hexyl)oxy)silyl)oxy)-2,2-dimethyl-4-(((Z)-octadec-9-en-1-yl)oxy)butanoate], for which the “Cell Viability %” value with HeLa cells is on record as 84%. Moreover, the “Viability (%) at different lipid concentrations, mean” value is 101.2% in the series on HepG2 cell line (6.25 μM lipid, resazurin); 97.0% in the series with HepG2 cell line (12.5 μM lipid, resazurin); 97.0% in the series with HepG2 cell line (25 μM lipid, resazurin); 97.8% in the series on HepG2 cell line (50 μM lipid, resazurin); 97.6% in the series on HepG2 cell line (100 μM lipid, resazurin); 102.1% in the series on HepG2 cell line (200 μM lipid, resazurin). Moreover, the “Viability (%) at different lipid concentrations, mean” value in the series on HepG2 cell line (400 μM lipid, resazurin) came to 73.7%; with HepG2 cell line (800 μM lipid, resazurin), 35.2%. For the same compound, in the series on HepG2 cell line (HepG2, 48 h), the IC50 was 625 µM.
Take `CCCCCCCC/C=C\CCCCCCCCOC(=O)C(C)(C)CC(OCCCCCCCC/C=C\CCCCCCCC)O[Si](C)(C)OCCCCCCN(CCCO)CCCO` (stereo not drawn) [Example 88, (Z)-octadec-9-en-1-yl 1-hydroxy-4-(3-hydroxypropyl)-12,12,16,16-tetramethyl-14-(((Z)-octadec-9-en-1-yl)oxy)-11,13-dioxa-4-aza-12-silaheptadecan-17-oate]: in the series on HeLa cells, the “Cell Viability %” value is recorded as 91%. Moreover, the “Viability (%) at different lipid concentrations, mean” value came to 109.1% in the series with HepG2 cell line (6.25 μM lipid, resazurin); 112.0% in the series with HepG2 cell line (12.5 μM lipid, resazurin); 109.5% with HepG2 cell line (25 μM lipid, resazurin); 99.6% in the series on HepG2 cell line (50 μM lipid, resazurin); 77.4% with HepG2 cell line (100 μM lipid, resazurin); 57.3% with HepG2 cell line (200 μM lipid, resazurin). Further, the “Viability (%) at different lipid concentrations, mean” value is given as 36.6% with HepG2 cell line (400 μM lipid, resazurin) and 21.0% in the series on HepG2 cell line (800 μM lipid, resazurin). Also, the IC50 in the series with HepG2 cell line (setting [1]) worked out at 272 µM.
For `CCCCCCCC/C=C\CCCCCCCCOC(=O)C(C)(C)CC(OCCCCCCCC/C=C\CCCCCCCC)O[Si](C)(C)OCCCCCCN1CCCCC1CO` (stereo not drawn) [Example 89, (Z)-octadec-9-en-1-yl 4-((((6-(2-(hydroxymethyl)piperidin-1-yl)hexyl)oxy)dimethylsilyl)oxy)-2,2-dimethyl-4-(((Z)-octadec-9-en-1-yl)oxy)butanoate], in the series with HeLa cells, the “Cell Viability %” value is listed as 96%. The “Viability (%) at different lipid concentrations, mean” value came to 101.4% in the series on HepG2 cell line (6.25 μM lipid, resazurin); 97.9% in the series with HepG2 cell line (12.5 μM lipid, resazurin); 97.9% in the series on HepG2 cell line (25 μM lipid, resazurin); 102.8% in the series on HepG2 cell line (50 μM lipid, resazurin); 108.3% in the series on HepG2 cell line (100 μM lipid, resazurin); 106.6% with HepG2 cell line (200 μM lipid, resazurin). For the same compound, the “Viability (%) at different lipid concentrations, mean” value in the series on HepG2 cell line (400 μM lipid, resazurin) came to 99.5%; in the series with HepG2 cell line (800 μM lipid, resazurin) it was 91.6%. Besides, the half-inhibitory concentration (IC50) in the series on HepG2 cell line (setting [1]) is over 800 µM.
